In experiment [1] the target is Glycogen synthase kinase-3 beta (Homo sapiens, UniProt P49841). Description: Z-lyte Assay.
For experiment [2], the target named is Dual specificity tyrosine-phosphorylation-regulated kinase 1A (Homo sapiens, UniProt Q13627). Put plainly: Z-lyte Assay. The procedure: All reactions were performed in duplicate.

One compound from BindingDB's records for patent US10556885 (Samumed, 2020) can be followed below.

A word on the EC50: it is the concentration that produces a half-maximal response. Read a high EC50 as lower potency in that assay.

Glycogen synthase kinase-3 beta, sequence (P49841 whole entry): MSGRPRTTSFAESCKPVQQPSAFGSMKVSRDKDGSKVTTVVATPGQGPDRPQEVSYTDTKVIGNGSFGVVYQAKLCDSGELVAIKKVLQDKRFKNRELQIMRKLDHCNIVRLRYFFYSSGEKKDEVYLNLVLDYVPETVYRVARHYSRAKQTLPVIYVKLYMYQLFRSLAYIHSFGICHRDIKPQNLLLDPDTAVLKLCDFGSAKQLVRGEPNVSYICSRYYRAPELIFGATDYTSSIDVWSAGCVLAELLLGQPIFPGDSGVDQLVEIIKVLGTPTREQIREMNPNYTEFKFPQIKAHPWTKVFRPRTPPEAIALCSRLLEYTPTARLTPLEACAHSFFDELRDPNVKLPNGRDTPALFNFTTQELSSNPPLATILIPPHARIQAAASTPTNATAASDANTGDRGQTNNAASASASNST

As for `Cc1ncc(-c2ccc3cnc(NC(=O)C4CCC(F)(F)CC4)cc3c2)[nH]1` [US10556885, Compound 121], the values for the EC50 in experiment [1] and in experiment [2] were 53 nM and 3.4 nM, respectively.
